Values of other authors, collected in PMC2409929 (British Journal of Cancer, 2004).
Marks after values point to notes of the source that are not given here.

Columns and labels:
topo-isomerase I = system: topo-isomerase I; parameters: method as in Slatter et al, 1997; settings: in vitro models; ref Slatter et al, 1997; cited from earlier work
[1] = N=6, mean±s.d., ref 16 (Herben et al, 1999), cited from earlier work
[2] = after irinotecan 140 mg m^−2: 10 mg m^−2 as 14-day prolonged infusions

In the case of `CCc1c2c(nc3ccc(O)cc13)-c1cc3c(c(=O)n1C2)COC(=O)[C@]3(O)CC` [SN-38, 7-ethyl-10-hydroxycamptothecin], the “Potency as topo-isomerase I inhibitor relative to parent compound (irinotecan)” value (topo-isomerase I) is listed as 100–1000 times, the “Metabolic ratio (SN-38 AUC over irinotecan AUC)” value ([1]; 140 mg m^−2: 10 mg m^−2 irinotecan as 14-day prolonged infusions) is listed as 0.12±0.02 ^b and the “SN-38 AUC” value [1, 2] is listed as 1.4 ± 0.3 µM·h. For the same compound, the “SN-38 AUCc (AUC per cycle)” value [1, 2] was 4.2 ± 0.9 µM·h.
